Measurements from ChEMBL document CHEMBL1201862, “PubChem BioAssay data set” (2004).
Activity calls are given as the source filed them.

What was measured:
[1] = target: T1, Trace amine-associated receptor 1 (Homo sapiens, UniProt Q96RJ0); assay: Counterscreen for agonists of the human trace amine associated receptor 1 (hTAAR1): Fluorescence-based cell-based high throughput dose response assay to identify hTAAR1 agonist that also desensitize TAAR1 receptor response.; type: functional
T1 sequence (Q96RJ0 whole entry): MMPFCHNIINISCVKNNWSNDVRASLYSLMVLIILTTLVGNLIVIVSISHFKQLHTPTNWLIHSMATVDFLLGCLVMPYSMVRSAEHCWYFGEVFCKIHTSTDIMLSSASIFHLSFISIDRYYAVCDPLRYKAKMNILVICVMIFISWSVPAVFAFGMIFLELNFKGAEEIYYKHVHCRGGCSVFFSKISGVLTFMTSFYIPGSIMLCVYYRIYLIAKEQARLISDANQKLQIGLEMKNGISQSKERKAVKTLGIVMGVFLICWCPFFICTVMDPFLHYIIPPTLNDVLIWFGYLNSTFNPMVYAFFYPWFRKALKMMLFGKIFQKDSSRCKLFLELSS

cells [2] = type: functional, cell-based
cells [3] = type: functional, cell-based; remark: listed apart in the source
[4] = target: T1, Trace amine-associated receptor 1; assay: Fluorescence-based cell-based high throughput dose response assay to identify agonists of the human trace amine associated receptor 1 (TAAR1).; type: functional
[5] = target: Dual specificity protein phosphatase 3 (Homo sapiens, UniProt P51452); assay: VHR phosphatase inhibition, dose response, selectivity assay for STEP inhibitor project, biochemical (AID 602374); type: functional; details: read-out: IC50_Mean
Dual specificity protein phosphatase 3, sequence (P51452 whole entry): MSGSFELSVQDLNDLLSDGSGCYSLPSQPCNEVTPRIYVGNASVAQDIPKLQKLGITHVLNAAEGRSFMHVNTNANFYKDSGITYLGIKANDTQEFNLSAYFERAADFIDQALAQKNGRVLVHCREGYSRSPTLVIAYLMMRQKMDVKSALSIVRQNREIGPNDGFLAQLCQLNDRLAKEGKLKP

[6] = target: T2, Tyrosine-protein phosphatase non-receptor type 22 (Homo sapiens, UniProt Q9Y2R2); assay: PTPN22 phosphatase inhibition, dose response, selectivity assay for STEP inhibitor project, biochemical (AID 624241); type: functional
T2 sequence (Q9Y2R2 whole entry): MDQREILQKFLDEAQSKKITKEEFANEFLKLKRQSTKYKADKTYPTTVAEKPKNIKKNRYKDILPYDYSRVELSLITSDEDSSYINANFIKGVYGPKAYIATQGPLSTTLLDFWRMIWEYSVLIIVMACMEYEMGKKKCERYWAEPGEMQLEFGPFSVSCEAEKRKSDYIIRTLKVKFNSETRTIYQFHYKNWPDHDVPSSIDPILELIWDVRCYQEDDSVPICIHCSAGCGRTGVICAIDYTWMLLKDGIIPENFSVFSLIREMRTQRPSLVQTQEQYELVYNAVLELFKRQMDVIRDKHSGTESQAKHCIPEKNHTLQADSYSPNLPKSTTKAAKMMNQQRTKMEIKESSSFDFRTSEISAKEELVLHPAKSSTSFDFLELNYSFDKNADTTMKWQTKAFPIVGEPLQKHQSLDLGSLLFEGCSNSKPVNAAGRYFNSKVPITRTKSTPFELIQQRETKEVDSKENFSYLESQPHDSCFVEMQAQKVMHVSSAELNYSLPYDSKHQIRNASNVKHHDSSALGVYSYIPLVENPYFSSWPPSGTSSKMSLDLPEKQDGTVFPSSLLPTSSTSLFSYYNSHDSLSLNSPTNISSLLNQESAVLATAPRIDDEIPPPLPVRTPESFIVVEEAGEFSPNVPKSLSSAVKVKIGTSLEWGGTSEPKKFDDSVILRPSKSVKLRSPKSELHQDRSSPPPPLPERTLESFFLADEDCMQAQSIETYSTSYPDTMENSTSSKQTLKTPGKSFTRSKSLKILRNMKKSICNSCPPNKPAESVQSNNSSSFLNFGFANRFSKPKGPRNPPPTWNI

[7] = target: Tyrosine-protein phosphatase non-receptor type 5 (Homo sapiens, UniProt P54829); assay: STEP phosphatase inhibitors, confirmation, biochemical, fluorescence intensity, uHTS hits (AID 602372); type: functional; details: read-out: IC50_Mean
Tyrosine-protein phosphatase non-receptor type 5, sequence (P54829 whole entry): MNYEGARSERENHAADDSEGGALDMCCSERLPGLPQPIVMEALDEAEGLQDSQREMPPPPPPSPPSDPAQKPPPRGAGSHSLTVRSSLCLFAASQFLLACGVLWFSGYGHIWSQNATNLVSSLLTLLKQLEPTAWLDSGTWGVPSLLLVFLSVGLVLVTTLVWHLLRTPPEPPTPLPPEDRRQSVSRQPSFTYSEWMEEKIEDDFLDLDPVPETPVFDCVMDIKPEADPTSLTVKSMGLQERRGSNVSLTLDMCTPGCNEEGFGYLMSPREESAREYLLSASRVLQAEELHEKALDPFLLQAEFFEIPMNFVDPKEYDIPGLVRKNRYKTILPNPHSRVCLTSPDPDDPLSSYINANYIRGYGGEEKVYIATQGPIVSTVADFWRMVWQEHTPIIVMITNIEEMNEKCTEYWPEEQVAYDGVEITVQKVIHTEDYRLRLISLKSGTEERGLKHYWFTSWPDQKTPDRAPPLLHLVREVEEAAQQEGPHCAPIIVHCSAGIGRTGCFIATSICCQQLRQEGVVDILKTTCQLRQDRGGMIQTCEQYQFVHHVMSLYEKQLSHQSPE

[8] = target: Tyrosine-protein phosphatase non-receptor type 11 (Homo sapiens, UniProt Q06124); assay: SHP2 phosphatase inhibition, dose response, selectivity assay for STEP inhibitor project, biochemical (AID 602367); type: functional; details: read-out: IC50_Mean
Tyrosine-protein phosphatase non-receptor type 11, sequence (Q06124 whole entry): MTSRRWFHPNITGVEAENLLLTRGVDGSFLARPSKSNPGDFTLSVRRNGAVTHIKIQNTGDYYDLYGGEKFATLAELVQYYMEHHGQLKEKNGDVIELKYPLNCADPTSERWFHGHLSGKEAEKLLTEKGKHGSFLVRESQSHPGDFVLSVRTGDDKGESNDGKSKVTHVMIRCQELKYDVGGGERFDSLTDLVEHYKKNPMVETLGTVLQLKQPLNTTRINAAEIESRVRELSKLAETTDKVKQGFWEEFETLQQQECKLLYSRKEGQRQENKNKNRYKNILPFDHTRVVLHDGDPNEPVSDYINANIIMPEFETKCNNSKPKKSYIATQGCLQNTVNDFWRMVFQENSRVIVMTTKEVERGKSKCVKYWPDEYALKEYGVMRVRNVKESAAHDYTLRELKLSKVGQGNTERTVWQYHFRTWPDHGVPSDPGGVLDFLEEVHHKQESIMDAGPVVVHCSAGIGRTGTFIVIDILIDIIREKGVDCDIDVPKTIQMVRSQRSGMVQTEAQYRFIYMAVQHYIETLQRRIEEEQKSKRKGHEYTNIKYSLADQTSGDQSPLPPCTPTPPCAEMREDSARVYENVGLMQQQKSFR

[9] = HEK293T cytotoxicity, dose response, cytotoxicity control for miR-122 modulator project, cell-based, inhibitor set, cherry-pick, set 2 (AID 720697); type: functional
[10] = target: T3, Sentrin-specific protease 1 (Homo sapiens, UniProt Q9P0U3); assay: potency of human SENP1 inhibitors, dose response, biochemical, kinetic FRET (AID 651697); type: functional; details: read-out: IC50_Mean
T3 sequence (Q9P0U3 whole entry): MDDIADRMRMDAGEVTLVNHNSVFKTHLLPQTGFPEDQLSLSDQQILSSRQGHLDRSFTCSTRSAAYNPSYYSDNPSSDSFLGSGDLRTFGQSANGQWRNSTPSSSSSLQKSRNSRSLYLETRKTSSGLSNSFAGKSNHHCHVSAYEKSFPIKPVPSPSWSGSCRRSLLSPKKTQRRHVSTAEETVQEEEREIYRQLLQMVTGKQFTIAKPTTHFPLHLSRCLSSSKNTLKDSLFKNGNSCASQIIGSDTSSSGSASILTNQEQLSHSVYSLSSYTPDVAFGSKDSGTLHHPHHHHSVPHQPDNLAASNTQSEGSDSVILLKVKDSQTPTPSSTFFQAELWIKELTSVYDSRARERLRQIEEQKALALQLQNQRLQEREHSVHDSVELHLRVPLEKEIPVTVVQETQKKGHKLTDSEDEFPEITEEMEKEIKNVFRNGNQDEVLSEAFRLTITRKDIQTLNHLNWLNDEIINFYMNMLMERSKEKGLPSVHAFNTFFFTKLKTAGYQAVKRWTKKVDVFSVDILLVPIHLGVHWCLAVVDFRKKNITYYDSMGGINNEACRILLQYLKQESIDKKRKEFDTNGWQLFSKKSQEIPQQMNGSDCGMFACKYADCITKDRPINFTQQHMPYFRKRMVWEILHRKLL

[11] = target: T3, Sentrin-specific protease 1; assay: Dose response confirmation of small molecule inhibitors of the catalytic domain of the SUMO protease, SENP1 in a FRET assay.; type: functional; details: read-out: IC50_Mean
[12] = T. cruzi intracellular amastigote growth inhibition, dose response, imaging, CA-I/72 strain, bovine embryo skeletal muscle, dry powder (AID 651885); type: functional, cell-based
[13] = target: 1-phosphatidylinositol 4,5-bisphosphate phosphodiesterase beta-3 (Homo sapiens, UniProt Q01970); assay: Fluorescence-based biochemical high throughput dose response assay to identify inhibitors of phospholipase C isozymes (PLC-B3).
1-phosphatidylinositol 4,5-bisphosphate phosphodiesterase beta-3, sequence (Q01970 whole entry): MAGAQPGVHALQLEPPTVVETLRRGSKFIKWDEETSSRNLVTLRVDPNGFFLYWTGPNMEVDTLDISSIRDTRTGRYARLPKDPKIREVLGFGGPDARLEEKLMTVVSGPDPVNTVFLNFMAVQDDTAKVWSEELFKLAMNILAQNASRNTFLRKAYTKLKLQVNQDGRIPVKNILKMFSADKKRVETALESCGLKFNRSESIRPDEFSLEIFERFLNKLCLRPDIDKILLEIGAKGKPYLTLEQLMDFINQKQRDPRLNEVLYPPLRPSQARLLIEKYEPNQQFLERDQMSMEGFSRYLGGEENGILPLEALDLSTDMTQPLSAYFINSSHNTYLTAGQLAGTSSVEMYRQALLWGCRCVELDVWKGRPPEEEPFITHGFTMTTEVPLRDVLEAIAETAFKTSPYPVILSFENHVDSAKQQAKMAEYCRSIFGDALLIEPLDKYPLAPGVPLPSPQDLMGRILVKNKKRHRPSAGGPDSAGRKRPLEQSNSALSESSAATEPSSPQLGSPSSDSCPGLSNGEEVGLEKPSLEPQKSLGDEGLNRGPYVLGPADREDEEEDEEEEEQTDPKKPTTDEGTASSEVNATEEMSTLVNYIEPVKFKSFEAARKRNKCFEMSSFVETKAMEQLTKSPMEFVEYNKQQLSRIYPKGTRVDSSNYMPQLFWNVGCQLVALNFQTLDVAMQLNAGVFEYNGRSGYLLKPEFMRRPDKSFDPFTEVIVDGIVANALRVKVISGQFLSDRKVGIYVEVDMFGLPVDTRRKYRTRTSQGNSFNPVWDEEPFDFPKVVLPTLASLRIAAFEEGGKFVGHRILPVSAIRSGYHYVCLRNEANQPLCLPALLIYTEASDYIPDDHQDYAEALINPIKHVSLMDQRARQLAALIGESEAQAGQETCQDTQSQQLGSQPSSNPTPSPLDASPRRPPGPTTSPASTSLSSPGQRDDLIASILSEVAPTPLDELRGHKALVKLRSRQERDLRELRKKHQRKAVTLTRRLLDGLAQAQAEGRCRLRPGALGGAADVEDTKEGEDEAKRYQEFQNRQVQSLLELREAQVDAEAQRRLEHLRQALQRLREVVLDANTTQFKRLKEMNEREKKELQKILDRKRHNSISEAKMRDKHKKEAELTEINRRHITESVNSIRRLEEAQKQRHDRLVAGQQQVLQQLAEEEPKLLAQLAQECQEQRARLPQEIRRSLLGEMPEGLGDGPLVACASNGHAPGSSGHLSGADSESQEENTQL

[14] = target: 1-phosphatidylinositol 4,5-bisphosphate phosphodiesterase gamma-1 (Homo sapiens, UniProt P19174); assay: Counterscreen for inhibitors of phospholipase C isozymes (PLC-B3): Fluorescence-based biochemical high throughput dose response assay to identify inhibitors of phospholipase C isozymes (PLC-gamma1).
1-phosphatidylinositol 4,5-bisphosphate phosphodiesterase gamma-1, sequence (P19174 whole entry): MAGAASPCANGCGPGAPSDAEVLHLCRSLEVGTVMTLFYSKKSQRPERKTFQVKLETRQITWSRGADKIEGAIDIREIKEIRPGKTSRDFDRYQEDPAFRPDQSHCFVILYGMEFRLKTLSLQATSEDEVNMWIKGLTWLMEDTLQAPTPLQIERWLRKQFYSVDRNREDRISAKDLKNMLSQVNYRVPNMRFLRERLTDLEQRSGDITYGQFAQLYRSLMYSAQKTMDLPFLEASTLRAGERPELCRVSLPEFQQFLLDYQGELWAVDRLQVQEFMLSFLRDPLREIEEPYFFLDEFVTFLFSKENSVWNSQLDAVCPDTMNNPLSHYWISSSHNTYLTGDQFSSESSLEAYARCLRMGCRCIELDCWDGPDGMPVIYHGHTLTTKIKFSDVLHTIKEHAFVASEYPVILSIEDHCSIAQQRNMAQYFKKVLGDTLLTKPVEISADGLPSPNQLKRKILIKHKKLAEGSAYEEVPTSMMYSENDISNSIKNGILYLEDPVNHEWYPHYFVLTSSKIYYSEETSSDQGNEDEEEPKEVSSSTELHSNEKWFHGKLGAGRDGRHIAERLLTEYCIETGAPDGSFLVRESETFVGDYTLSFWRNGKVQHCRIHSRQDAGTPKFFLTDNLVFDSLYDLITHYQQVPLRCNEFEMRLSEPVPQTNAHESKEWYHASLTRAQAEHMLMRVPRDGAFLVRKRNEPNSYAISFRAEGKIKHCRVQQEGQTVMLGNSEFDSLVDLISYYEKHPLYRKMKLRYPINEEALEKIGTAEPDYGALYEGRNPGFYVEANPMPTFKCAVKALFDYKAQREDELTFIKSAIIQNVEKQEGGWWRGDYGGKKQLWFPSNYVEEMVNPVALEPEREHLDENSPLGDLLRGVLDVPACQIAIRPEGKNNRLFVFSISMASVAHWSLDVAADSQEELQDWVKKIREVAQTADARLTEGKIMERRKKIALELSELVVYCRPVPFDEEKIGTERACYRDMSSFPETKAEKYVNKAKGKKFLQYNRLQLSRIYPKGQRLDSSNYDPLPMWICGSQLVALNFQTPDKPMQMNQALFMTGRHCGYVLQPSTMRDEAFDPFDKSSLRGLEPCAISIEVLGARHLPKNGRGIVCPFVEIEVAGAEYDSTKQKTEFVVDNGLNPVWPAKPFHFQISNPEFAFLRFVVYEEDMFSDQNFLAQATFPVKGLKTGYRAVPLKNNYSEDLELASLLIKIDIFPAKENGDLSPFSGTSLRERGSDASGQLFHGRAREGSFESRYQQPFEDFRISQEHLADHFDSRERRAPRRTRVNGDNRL

[15] = target: T4, Heat shock factor protein 1 (Mus musculus, UniProt P38532); assay: HSF1 potentiators in luciferase reporter cells, confirmation, cell-based, NIH3T3, luminescence, dose retest (AID 435004); type: functional;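 further: stress induced by proteasome inhibitor MG132 added 30 min after compound; luciferase reporter driven by HSF1 response element in NIH3T3 cells; actives raise luminescence as potentiators of the MG132 stress response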
T4 sequence (P38532 whole entry): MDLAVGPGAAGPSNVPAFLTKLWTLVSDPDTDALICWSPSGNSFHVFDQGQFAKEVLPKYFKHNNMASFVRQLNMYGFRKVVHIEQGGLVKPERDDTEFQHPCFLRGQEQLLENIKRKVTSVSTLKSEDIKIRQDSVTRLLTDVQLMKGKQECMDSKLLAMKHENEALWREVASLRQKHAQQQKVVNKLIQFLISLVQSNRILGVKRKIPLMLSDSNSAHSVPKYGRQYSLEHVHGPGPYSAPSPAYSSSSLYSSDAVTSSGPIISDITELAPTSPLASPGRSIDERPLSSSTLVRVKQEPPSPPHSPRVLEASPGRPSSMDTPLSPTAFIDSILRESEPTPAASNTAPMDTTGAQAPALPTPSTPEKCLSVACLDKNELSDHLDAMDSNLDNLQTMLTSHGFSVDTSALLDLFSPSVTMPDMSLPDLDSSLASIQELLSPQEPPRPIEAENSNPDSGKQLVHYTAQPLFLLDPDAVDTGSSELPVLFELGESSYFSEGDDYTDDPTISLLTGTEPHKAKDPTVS

HeLa = assay: HeLa cell cytotoxicity, dose response, cytotoxicity control, ATP luminescence, cherry-pick samples (AID 687004); type: functional, cell-based; details: Homo sapiens
[16] = A549 cell cytotoxicity, dose response, cytotoxicity control, plate reader, cherry-pick, antagonist series (AID 743412); type: functional, cell-based
[17] = LGR2 antagonists, dose response, cell-based, HEK293, CRE-luciferase reporter, cherry pick, set 2 (AID 743343); type: functional;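 further: transfected cells were stimulated with diluted bursicon conditioned medium after compound addition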
[18] = MC4R antagonists, dose response, counter-screen for LGR2 antagonist project, cell-based, plate reader, cherry pick (AID 743444); type: functional;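 further: transfected HEK 293 cells stimulated with alpha-MSH peptide; potency of inhibitors of the alpha-MSH evoked signal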
[19] = HEK293 cell cytotoxicity, dose response, cytotoxicity control, plate reader, cherry-picked samples (AID 743446); type: functional, cell-based
cells [20] = assay: cells
[21] = HEp-2 cell cytotoxicity, dose response, cytotoxicity control for RSV inhibitor project, HTS (AID 2410); type: functional; details: human respiratory syncytial virus
[22] = target: Ras and Rab interactor 1/Tyrosine-protein kinase ABL1 (Homo sapiens, UniProt P00519+Q13671); type: functional;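 further: biochemical TR-FRET dose-response test measuring inhibition of binding between Rin1 and Abl proteins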
Beta-galactosidase = Beta-galactosidase (Escherichia coli, UniProt Q8VNN2); assay: Dose response counterscreen for EBI2 assay utilizing the enzyme, b-galactosidase.; type: functional
Beta-galactosidase, sequence (Q8VNN2 whole entry): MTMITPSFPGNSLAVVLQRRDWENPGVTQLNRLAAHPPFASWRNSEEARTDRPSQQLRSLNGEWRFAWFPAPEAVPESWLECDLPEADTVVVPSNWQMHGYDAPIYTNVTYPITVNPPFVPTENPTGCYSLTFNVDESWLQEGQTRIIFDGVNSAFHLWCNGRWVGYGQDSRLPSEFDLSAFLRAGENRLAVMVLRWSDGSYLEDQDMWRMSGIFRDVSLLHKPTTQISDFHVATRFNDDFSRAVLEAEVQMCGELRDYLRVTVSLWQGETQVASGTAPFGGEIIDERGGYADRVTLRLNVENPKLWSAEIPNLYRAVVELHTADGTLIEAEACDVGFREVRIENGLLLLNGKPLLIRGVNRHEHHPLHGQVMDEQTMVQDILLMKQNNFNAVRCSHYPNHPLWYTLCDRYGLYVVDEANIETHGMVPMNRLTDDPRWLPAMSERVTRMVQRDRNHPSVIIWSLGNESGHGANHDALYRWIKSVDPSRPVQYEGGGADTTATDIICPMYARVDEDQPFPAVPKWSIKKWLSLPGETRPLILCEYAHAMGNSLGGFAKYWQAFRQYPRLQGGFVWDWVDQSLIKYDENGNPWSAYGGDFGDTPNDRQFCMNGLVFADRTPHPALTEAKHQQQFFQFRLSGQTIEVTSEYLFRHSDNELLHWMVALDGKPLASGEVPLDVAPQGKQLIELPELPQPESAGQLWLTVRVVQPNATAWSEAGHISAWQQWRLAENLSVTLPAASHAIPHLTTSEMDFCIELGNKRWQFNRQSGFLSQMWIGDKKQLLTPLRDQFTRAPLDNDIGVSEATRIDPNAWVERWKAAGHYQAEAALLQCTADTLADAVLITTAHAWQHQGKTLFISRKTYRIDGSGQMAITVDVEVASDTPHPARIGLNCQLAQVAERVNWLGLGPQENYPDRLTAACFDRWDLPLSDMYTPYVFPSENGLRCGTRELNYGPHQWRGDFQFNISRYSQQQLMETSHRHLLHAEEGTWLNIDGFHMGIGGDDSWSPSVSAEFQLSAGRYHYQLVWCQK

[23] = HepG2 cell cytotoxicity, dose response, cytotoxicity control, plate reader, cherry-pick, antagonist series (AID 743416); type: functional, cell-based
cells [24] = type: functional, cell-based; remark: listed apart in the source
[25] = target: T5, Nuclear receptor subfamily 0 group B member 1 (Homo sapiens, UniProt P51843); type: functional, cell-based;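 further: HEK293T cells transfected with SF-1 and DAX-1 plus StAR promoter luciferase reporter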
T5 sequence (P51843 whole entry): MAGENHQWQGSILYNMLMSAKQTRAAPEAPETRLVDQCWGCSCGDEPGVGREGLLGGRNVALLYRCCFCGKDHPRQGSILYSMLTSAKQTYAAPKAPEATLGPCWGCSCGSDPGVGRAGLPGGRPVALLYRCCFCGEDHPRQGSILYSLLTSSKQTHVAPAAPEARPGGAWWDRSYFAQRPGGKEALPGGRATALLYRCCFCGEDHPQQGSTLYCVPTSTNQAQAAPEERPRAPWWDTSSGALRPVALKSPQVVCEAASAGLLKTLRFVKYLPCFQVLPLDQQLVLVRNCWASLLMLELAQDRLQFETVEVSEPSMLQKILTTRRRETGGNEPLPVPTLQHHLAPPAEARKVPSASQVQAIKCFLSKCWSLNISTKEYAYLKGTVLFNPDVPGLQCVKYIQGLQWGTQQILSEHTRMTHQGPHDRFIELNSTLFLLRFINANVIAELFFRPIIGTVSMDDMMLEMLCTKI

CCc1ccccc1S(=O)(=O)Cc1ccc(C(=O)NCCc2ccccc2)o1
IC50 [1]: 6.38 µM (active) | IC50 (cells [2]): 20 µM (inactive) | EC50 (cells [3]): > 29.9 µM (inactive) | EC50 [4]: 4.46 µM (active)

COc1cc(/C=C2/SC(=S)N(CC(=O)O)C2=O)ccc1OCC(=O)Nc1ccc(C)c(C)c1
IC50 [5]: 4.32 µM (active) | IC50 [6]: 16.5 µM (active) | IC50 [7]: 6.72 µM (active) | IC50 [8]: 3.64 µM (active)

COc1ccc(-c2c(C(C)=O)c(C)nc3sc4c(c23)NC(c2ccccc2)NC4=O)cc1 (stereo unspecified)
AC50 [9]: 2.66 µM (active)

O=C(O)CN1C(=O)S/C(=C2/C(=O)Nc3ccccc32)C1=O
IC50 [10]: 13.7 µM (active) | IC50 [11]: 3.7 µM (active)

C[C@@H]1CN([C@@H](C)CO)C(=O)c2cc(Br)cnc2O[C@H]1CN(C)Cc1ccc2c(c1)OCO2
IC50 [12]: > 20 µM (inactive)

CC/C(NCc1ccco1)=C1/C(=O)NC(=O)N(C2CCCCC2)C1=O
IC50 [13]: > 122 µM (inactive) | IC50 [14]: > 122 µM (inactive) | EC50 [15]: > 260 µM (inactive)

Cc1ccc(N2CCN(C(CCc3ccccc3)C(=O)Nc3c(C)cccc3C)CC2)cc1 (stereo unspecified)
AC50 (HeLa): > 52 µM (inactive)

CCCCCn1c(=O)[nH]c2cc(C(=O)NCCN3C(C)CCCC3C)ccc2c1=O (stereo unspecified)
AC50 [9]: 2.22 µM (active)

O=C(NN=Cc1ccccc1O)c1cccc([N+](=O)[O-])c1
IC50 [5]: 3.13 µM (active) | IC50 [6]: > 100 µM (inactive) | IC50 [7]: 8.95 µM (active) | IC50 [8]: 2.39 µM (active)

COc1cccc(-c2nc(SC)nc3sc(C(=O)NC(C)(C)C)c(N)c23)c1
IC50 [10]: 19.1 µM (active) | IC50 [11]: 15.2 µM (active)

COc1ccccc1N(Cc1ccccc1)S(=O)(=O)c1cccc(C(=O)Nc2cc(C)ccn2)c1
AC50 [16]: 32.2 µM (active) | AC50 [17]: 4.92 µM (active) | AC50 [18]: 3.95 µM (active) | AC50 [19]: 4.09 µM (active) | IC50 (cells [20]): 38.5 µM (active) | CC50 [21]: 21.8 µM (active)

O=C(C1CCOCC1)N1C[C@H]2[C@@H](c3ccccc31)[C@@H](CO)N2Cc1ccccc1Cl
AC50 (HeLa): > 52 µM (inactive)

OC[C@@H]1CN(Cc2ccc(Cl)cc2)C[C@H](n2cnc3c(NC4CC4)ncnc32)O1
IC50 [22]: 37.2 µM (inactive) | IC50 (Beta-galactosidase): > 80 µM (inactive)

COc1ccc(CCNC(=O)C2CCN(S(=O)(=O)c3ccc(Cl)cc3)CC2)cc1OC
AC50 [16]: 35.3 µM (active) | AC50 [23]: 35.2 µM (active)

Cc1ccccc1C(=O)N[C@H](C(=O)N1CCC[C@H]1C(=O)NCCc1ccccc1Cl)C(C)C
IC50 [1]: 3.15 µM (active) | IC50 (cells [2]): > 3.32 µM (active) | EC50 (cells [3]): > 29.9 µM (inactive) | EC50 [4]: 1.64 µM (active)

O=C(COc1ccc(Cl)cc1)N1CCN(Cc2ccccc2)CC1
IC50 (Beta-galactosidase): > 80 µM (inactive)

COc1ccc(-c2cc(NC=O)c3ncc(-c4ccc(OC)c(OC)c4)n3c2)c(OC)c1
IC50 (cells [24]): > 67.6 µM (inactive) | IC50 [25]: > 67.6 µM (inactive)
